Literature values, collected in patent US8101207B2, “Composition containing medicine extremely slightly soluble in water and method for preparation thereof” (Kowa Co., Ltd., priority 2003, dated 2012).

Tests used:
[1] = system: interleukin-1β; details: known from Japanese Patent Application Laid-Open (kokai) No. 12-198776

solubility in water: very low solubility
SMILES: CSc1ccc(-c2nn(Cc3ccccc3)c(=O)cc2-c2ccc(Cl)cc2)cc1 [Compound A, 2-benzyl-5-(4-chlorophenyl)-6-[4-(methylthio)phenyl]-2H-pyridazin-3-one]
effect of inhibiting production of interleukin-1β [1]: excellent effect
